In patent US20250326792A1, “A FORMULATION FOR TREATMENT OF PIGMENTARY DISORDERS” (priority 2022, published 2025):
PHPP = 3-Phenylpyrazolo[3,4-d]pyrimidine (N-terminal cap)

Key:
Tyrosinase = Tyrosinase activity assay (L-DOPA) in NHEM cells; type: cell-based, Human; conditions: for % increase in tyrosinase activity compared to control / Tyrosinase activity: TYROSINASE ACTIVITY table
Method: (§1) Culture and maintenance of cell lines: B16F10 cells were cultured in RPMI containing 10% fetal bovine serum, 100 units per millilitre (U/mL) penicillin, 0.1 mg/mL streptomycin, and 0.25 microgram per millilitre (μg/mL) amphotericin B at 37 degrees Celsius in a humidified 95% air/5% CO2 incubator. Drug treatment was done 24 hours after seeding. Cells were harvested 48 hours later and melanin content and tyrosinase activity determined in triplicate. NHEM cells were cultured in DMEM containing 10% fetal bovine serum, 100 units per milliliter (U/mL) penicillin, 0.1 mg/mL streptomycin, and 0.25 microgram per millilitre (μg/mL) amphotericin B at 37 degrees Celsius in a humidified 95% air/5% CO2 incubator. Drug treatment was done 24 hours after seeding. Cells were harvested 48 hours later and melanin content and tyrosinase activity determined in triplicate.
(§2) IS103 was dissolved in water for injection or DMSO to prepare stock solution of about 50 mg/ml. The stock solution was used for preparation of subsequent dilutions in solvent to achieve working dilutions for treatment ranging 0.1 μg/ml to 1000 μg/ml.
Tyrosinase activity was determined using L-DOPA as a substrate. Briefly, B16F10 and NHEM cells were seeded in a 6-well plate (2×10^4 cells/well) and incubated for overnight. The cells were then treated with or without the test compounds for 46 hours and were washed twice with ice cold PBS and extracted by sonication in 100 μl of 0.1M Tris-HCl buffer (pH 7.2) containing 1% Nonidet P-40, 0.01% SDS, 100 μM phenyl methyl sulfonyl fluoride, and 1 μg/ml aprotinin and then centrifuged at 10,000 g for about 10 minutes at 4° C. The supernatants collected were used for enzyme assay and its protein content was estimated by method of Bradford using BSA as standard. Samples of cell extract supernatant were incubated in duplicate for 1 hour at 37° C. in 1 ml of 0.1M sodium phosphate buffer (pH 7.4) containing 0.1% L-DOPA. The absorbance was then monitored at 450 nm and compared with purified mushroom tyrosinase (Sigma). The standard curve was prepared limiting linearity within the range of experimental value.

NHEM cells [1] = assay: Melanin content assay in NHEM cells; type: cell-based, Human; conditions: for % increase in melanin content compared to control / Fold change in melanin content: NHEM CELLS
Method: as §1, §2
(§3) Cells were seeded in a 6-well plate (2×10^4 cells/well) and incubated overnight to allow the cells to adhere. After treating with various test samples for 4 or 5 days, cells were washed with phosphate-buffered saline (PBS), trypsinized, counted, and then lysed in 1 N NaOH at 100° C. for about 1 hour. The melanin content in each sample was calculated by comparison of absorbance at 400 nm of unknown samples with a standard curve obtained using synthetic melanin. IS103 enhances melanin synthesis in a dose dependent manner without significant toxicity. B16F10 and NHEM cells were treated with different concentrations of IS103 ranging from 0.1 to 1000 μg/ml and analysed melanin contents in cells. It was observed that IS103 was able to enhance pigmentation of B16F10 and NHEM cells in a dose-dependent manner (Table 18 and FIGS. 4 and 5). […] To assess the toxicity of the IS103 peptide, cell viability was analyzed by MTT assay.

[2] = Solubility of synthetic peptide IS103; type: physicochemical
B16F10 cells [3] = assay: Melanin content assay in B16F10 cells; type: cell-based; conditions: for % increase in melanin content compared to control / Fold change in melanin content: B16F10 CELLS
Method: as §1, §2
as §3, with “IS103 enhances melanin synthesis in a dose dependent manner without significant toxicity.” left out, “cells.” for “cells. It was observed that IS103 was able to enhance pigmentation of B16F10 and NHEM cells in a dose-dependent manner (Table 18 and FIGS. 4 and 5).”

NHEM cells [4] = assay: Cell viability (XTT assay) in NHEM cells; type: cell-based, Human; conditions: 1000 μg/ml for about 48 hours
Method: (§4) Culture and maintenance of cell lines: B16F10 cells were cultured in RPMI containing 10% fetal bovine serum, 100 units per millilitre (U/mL) penicillin, 0.1 mg/mL streptomycin, and 0.25 microgram per millilitre (μg/mL) amphotericin B at 37 degrees Celsius in a humidified 95% air/5% CO2 incubator. Drug treatment was done 24 hours after seeding. Cells were harvested 48 hours later and melanin content and tyrosinase activity determined in triplicate. […] […]
(§5) B16F10 and NHEM cells were sub-cultured into 96-well culture plates at a density of 1×10^4 cells/well in 100 μL medium and after about 24 hours of incubation, the medium was discarded and replaced with 100 μL of a suitable medium (RPMI for B16F10 and DMEM for NHEM with 1% FBS) for starvation and then treated in the presence or absence of various concentrations of test compound and positive controls (IBMX and α-MSH). […] At the end of the incubation, about 50 μL of XTT test solution prepared by mixing about 5 mL of XTT-labeling reagent and about 100 μL of electron coupling reagent is added to each well and after about 4 hours of incubation at 37° C. and a about 5% CO2 incubator, the absorbance was measured on an ELISA reader at a test wavelength of 490 nm.

B16F10 cells [5] = assay: Cell viability (XTT assay) in B16F10 cells; type: cell-based; conditions: 1000 μg/ml for about 48 hours
Method: as §4, §5

[6] = NHEM cells, different concentrations, about 48 hours

With “PHPP-Tyr-Arg-Ser-Arg-Lys-Tyr-Ser-Ser-Trp-Tyr-NH2 ({PHPP}-YRSRKYSSWY-NH2) [IS103]” the “increase in Tyrosinase activity when compared to control” value (Tyrosinase; NHEM CELLS, 250 μg/mL) was 55.67%, the “effect on tyrosinase activity (FIG. 7)” value (Tyrosinase; [6]) was “increased tyrosinase activity” and the “% increase in tyrosinase activity compared to control” value (“% increase in tyrosinase activity” for short) (Tyrosinase; NHEM CELLS, 0.1 μg/mL) was −0.67%. The Tyrosinase activity (Tyrosinase; NHEM CELLS, 0.1 μg/mL) was 13.7 ± 1.24, the “% increase in tyrosinase activity” value (Tyrosinase; NHEM CELLS, 1 μg/mL) was 3.67% and the Tyrosinase activity (Tyrosinase; NHEM CELLS, 1 μg/mL) was 18.0 ± 3.30. For the same substance, the “% increase in tyrosinase activity” value (Tyrosinase; NHEM CELLS, 10 μg/mL) was 10.67%, the Tyrosinase activity (Tyrosinase; NHEM CELLS, 10 μg/mL) was 25.0 ± 0.80 and the “% increase in tyrosinase activity” value (Tyrosinase; NHEM CELLS, 50 μg/mL) was 22.67%. The Tyrosinase activity (Tyrosinase; NHEM CELLS, 50 μg/mL) was 37.0 ± 3.00, the “% increase in tyrosinase activity” value (Tyrosinase; NHEM CELLS, 100 μg/mL) was 45.33% and the Tyrosinase activity (Tyrosinase; NHEM CELLS, 100 μg/mL) was 59.7 ± 1.90. The “% increase in tyrosinase activity” value (Tyrosinase; NHEM CELLS, 250 μg/mL) was 55.67%, the Tyrosinase activity (Tyrosinase; NHEM CELLS, 250 μg/mL) was 70.0 ± 2.20 and the “% increase in tyrosinase activity” value (Tyrosinase; NHEM CELLS, 500 μg/mL) was 61%. The Tyrosinase activity (Tyrosinase; NHEM CELLS, 500 μg/mL) was 75.3 ± 2.50, the “% increase in tyrosinase activity” value (Tyrosinase; NHEM CELLS, 1000 μg/mL) was 61% and the Tyrosinase activity (Tyrosinase; NHEM CELLS, 1000 μg/mL) was 75.3 ± 2.60. For the same substance, the “% increase in melanin content compared to control” value (“% increase in melanin content” for short) (NHEM cells [1]; 0.1 μg/mL) was 0%, the “Fold change in melanin content” value (NHEM cells [1]; 0.1 μg/mL) was 1.0 ± 0.20 and the “% increase in melanin content” value (NHEM cells [1]; 1 μg/mL) was 0%. The “Fold change in melanin content” value (NHEM cells [1]; 1 μg/mL) was 1.0 ± 0.20, the “% increase in melanin content” value (NHEM cells [1]; 10 μg/mL) was 0% and the “Fold change in melanin content” value (NHEM cells [1]; 10 μg/mL) was 1.0 ± 0.20. For the same substance, the “% increase in melanin content” value (NHEM cells [1]; 50 μg/mL) was 40%, the “Fold change in melanin content” value (NHEM cells [1]; 50 μg/mL) was 1.4 ± 0.20 and the “% increase in melanin content” value (NHEM cells [1]; 100 μg/mL) was 130%. For the same substance, the “Fold change in melanin content” value (NHEM cells [1]; 100 μg/mL) was 2.3 ± 0.20, the “% increase in melanin content” value (NHEM cells [1]; 250 μg/mL) was 160% and the “Fold change in melanin content” value (NHEM cells [1]; 250 μg/mL) was 2.6 ± 0.20. For the same substance, the “% increase in melanin content” value (NHEM cells [1]; 500 μg/mL) was 180%, the “Fold change in melanin content” value (NHEM cells [1]; 500 μg/mL) was 2.8 ± 0.20 and the “% increase in melanin content” value (NHEM cells [1]; 1000 μg/mL) was 165%. The “Fold change in melanin content” value (NHEM cells [1]; 1000 μg/mL) was 2.7 ± 0.20, the “effect on melanin synthesis (FIG. 5)” value (NHEM cells [1]; [6]) was “enhanced melanin synthesis in a dose-dependent manner” and the Solubility [2] was “soluble in water”. For the same substance, the “% increase in melanin content” value (B16F10 cells [3]; 0.1 μg/mL) was 0%, the “Fold change in melanin content” value (B16F10 cells [3]; 0.1 μg/mL) was 1.0 ± 0.20 and the “% increase in melanin content” value (B16F10 cells [3]; 1 μg/mL) was 0%. For the same substance, the “Fold change in melanin content” value (B16F10 cells [3]; 1 μg/mL) was 1.0 ± 0.30, the “% increase in melanin content” value (B16F10 cells [3]; 10 μg/mL) was 20% and the “Fold change in melanin content” value (B16F10 cells [3]; 10 μg/mL) was 1.2 ± 0.10. The “% increase in melanin content” value (B16F10 cells [3]; 50 μg/mL) was 60%, the “Fold change in melanin content” value (B16F10 cells [3]; 50 μg/mL) was 1.6 ± 0.20 and the “% increase in melanin content” value (B16F10 cells [3]; 100 μg/mL) was 125%. For the same substance, the “Fold change in melanin content” value (B16F10 cells [3]; 100 μg/mL) was 2.3 ± 0.30, the “% increase in melanin content” value (B16F10 cells [3]; 250 μg/mL) was 180% and the “Fold change in melanin content” value (B16F10 cells [3]; 250 μg/mL) was 2.8 ± 0.20. For the same substance, the “% increase in melanin content” value (B16F10 cells [3]; 500 μg/mL) was 190%, the “Fold change in melanin content” value (B16F10 cells [3]; 500 μg/mL) was 2.9 ± 0.10 and the “% increase in melanin content” value (B16F10 cells [3]; 1000 μg/mL) was 176%. The “Fold change in melanin content” value (B16F10 cells [3]; 1000 μg/mL) was 2.8 ± 0.30, the “concentration sufficient to significantly enhance melanin synthesis” value (B16F10 cells [3]; B16F10 and NHEM cells, not distinguished) was 10 µg/mL and the “effect on melanin synthesis (FIG. 4)” value (B16F10 cells [3]; B16F10 cells, different concentrations, about 48 hours) was “enhanced melanin synthesis in a dose-dependent manner”. The “effect on cell viability” value (NHEM cells [4]) was “did not exert any significant effect on cell viability” and the “effect on cell viability” value (B16F10 cells [5]) was “did not exert any significant effect on cell viability”.
